We go through two molecules from publication PMC9436915, “Tetrahedral framework nucleic acids‐based delivery promotes intracellular transfer of healing peptides and accelerates diabetic would healing” (Cell Proliferation, 2022).

Data set [1] relates to trypsin. Kind of data set: Enzyme stability of peptide with trypsin. The class given is in vitro ADME. The following applies: 37 °C, during 1.5 h, UV 205 nm. As for the experimental part:
As to the enzyme stability of peptide, equal amount of peptide and p@FNA were treated with trypsin and incubated in 37 °C for 1.5, 3, and 6 h. The remaining amount of peptide was measured by UV spectrophotometer (205 nm). As to enzyme stability of tFNA, equal amount of tFNA and p@FNA were treated with DNase I for 1 min. After neutralization, samples were examined by 6%PAGE at 60 V for 80 min.

Data set [2] deals with HUVEC. The data set is described as follows: Tube formation assay on Matrigel. The class given is cell-based. To be noted: inhibitor+p@tFNA group; n = 3. As for the experimental part: (§1) HUVECs under diabetic microenvironment were induced by incubation with 200 μg/ml AGEs (Bioss, Beijing, China) for 24 h. Cells were then treated with peptides or p@FNA (125 nM) for subsequent experiments.
The formation of blood vessel‐like structures in vitro was observed by tube formation assay. Cells were pre‐incubated with AGEs for 24 h and subsequently treated with peptide or p@FNA for another 24 h. Subsequently, 100 μl of HUVEC (1–1.5 × 10^5 cells/ml) were seeded on Matrigel (Corning, NY) in 96‐well plates. Images were taken after 6 h. Statistical analysis of tube formation was performed by Image J.

In data set [3] the test system is VEGFA. The data set is described as follows: Western blotting, VEGFA protein. The class given is cell-based. To be noted: inhibitor plus p@tFNA treatment, n = 3. As for the experimental part: as §1
(§2) The expression of β‐actin, VEGFA, MMP‐9, ERK1/2 and p‐ERK1/2 was detected by western blotting. The total protein of the sample was extracted by whole cell lysis method. The target protein was separated by 10% SDS‐PAGE and transferred to PVDF membrane. The bands were blocked in 5% BSA for 1 h and then incubated with primary antibodies against β‐actin (1:5000, PMK058S, BioPM, Wuhan, China), VEGFA (ab214424, Abcam, Cambridge, UK), MMP‐9 (ab76003, Abcam, Cambridge, UK), ERK1/2 (1:1000, CST, #4370, MA) and p‐ERK1/2 (1:2000, CST, #4370, MA) overnight at 4°C. The next day, PVDF membranes were rewarmed and incubated with secondary antibodies for 1 h. Bands were washed three times with TBST. The final exposure was performed in a Bio‐Rad chemiluminometry.
On the technique in general: Immunoblotting shows a protein as a band on a membrane.

In data set [4] the test system is p-ERK1/2. The data set is described as follows: Western blotting, ERK1/2 phosphorylation. To be noted: inhibitor plus p@tFNA treatment, n = 3. The class given is cell-based. As for the experimental part: as §1, §2

Where a SMILES comes first, the peptide text is derived from it.

In the case of `C[C@@H](O)[C@H](NC(=O)[C@H](CCCNC(=N)N)NC(=O)CNC(=O)[C@H](CCC(=O)O)NC(=O)[C@@H](N)CCCNC(=N)N)C(=O)O` [peptide] (H-REGRT-OH), in data set [1], the “Stability to trypsin (in words)” value is “rapid decomposition”.

Consider `Cn1nccc1Nc1nccc(-c2cc3c(s2)C(C)(C)N(CCN2CCOCC2)C3=O)n1` [LY3214996], for which, in data set [2], the “Tube formation after ERK1/2 inhibition: branching intervals” value is given as 0.49 fold, the “Tube formation after ERK1/2 inhibition: branching length” value was 0.25 fold, the “Tube formation after ERK1/2 inhibition: junctions” value is 0.19 fold and the “Tube formation after ERK1/2 inhibition: meshes” value was found to be 0.13 fold. Moreover, in data set [2], the “Tube formation after ERK1/2 inhibition: nodes” value amounted to 0.20 fold, the “Tube formation after ERK1/2 inhibition: total length” value was 0.35 fold and the “Tube formation after ERK1/2 inhibition: total mesh area” value amounted to 0.02 fold. The “VEGFA expression after ERK1/2 inhibitor” value in data set [3] worked out at 0.59 fold. In addition, the “p-ERK1/2 expression after ERK1/2 inhibitor” value in data set [4] stood at 0.69 fold.
